Data from patent publication US9944607B2, “Thiohydantoin derivatives and uses thereof” (Whitehead Institute for Biomedical Research, priority 2012, dated 2018).
Converted amounts (≈) assume the structure as drawn. Like-named read-outs stand apart in the source and are kept apart here.

Assays:
Candida albicans CaCi-2 = assay: Primary assay: C. albicans CaCi-2 growth inhibition (Alamar Blue); format: cell-based; conditions: for Drop in activity / potency relative to hit CID3889161: C. albicans growth inhibition; for Activity against C. albicans: CaCi-2, or both test strains (CaCi-2, CaCi-17) where the sentence names none
Candida albicans CaCi-17 = assay: Primary assay: C. albicans CaCi-17 growth inhibition (Alamar Blue); format: cell-based; conditions: n = 3, 48 hours, tested up to 26 μM
[1] = test system: NIH-3T3 mammalian fibroblasts; assay: Counterscreen mammalian cell toxicity assay (Alamar Blue); format: cell-based, murine; conditions: n = 1, 48 hours, tested up to 26 μM; for IC50: read-out: Growth Inhibition Activity, IC50 (μM), 3T3 Fibroblasts (n = 1)
Experimental: Quiescent murine fibroblasts were subjected to incubation with compounds of interest for 48 hours. Subsequent cell viability was determined via measuring Alamar Blue fluorescence.
Procedures • After overnight culture, pin compounds into wells at 100 nL/well using the CyBio CyBi-Well pinning instrument. • Return the plates to the tissue culture incubator and incubate the culture for an additional 48 hours at 37° C. under 5% CO2. • At the completion of this incubation, add Alamar Blue solution diluted 1:40 in PBS to each well (10 μL/well) to achieve a final dilution of 1:200. • Incubate the plates for an additional 2-3 hours at 37° C. under 5% CO2. • Read the Relative Fluorescence Intensity (RFU) of wells on a standard plate reader as a measure of relative cell growth. […] 4.4.

physchem = conditions: for solubility at 24 h: phosphate buffered saline with 1% DMSO, pH 7.4, aqueous buffer, kinetic from dmso stock
Experimental: Solubility was determined in phosphate buffered saline (PBS) pH 7.4 with 1% DMSO. Each compound was prepared in duplicate at 100 μM in both 100% DMSO and PBS with 1% DMSO. Compounds were allowed to equilibrate at room temperature with a 250 rpm orbital shake for 24 hours. After equilibration, samples were analyzed by UPLC-MS (Waters, Milford, Mass.) with compounds detected by SIR detection on a single quadrupole mass spectrometer. The DMSO samples were used to create a two-point calibration curve to which the response in PBS was fit.

[2] = Table 3, n = 3, 48 hours, tested up to 26 μM
[3] = Table 7, n = 3, 48 hours, tested up to 26 μM

Row | SMILES | PBS Solubility (physchem; pH 7.4) | Growth Inhibition Activity, IC50 (μM), C. albicans (n = 3) CaCi-2 (Candida albicans CaCi-2; [3]) | Growth Inhibition Activity, IC50 (μM), C. albicans (n = 3) CaCi-17 (Candida albicans CaCi-17; Table 7) | Growth Inhibition Activity, IC50 (μM), 3T3 Fibroblasts (n = 1) ([1]; Table 7) | solubility at 24 h (physchem) | further results
1 | Cc1ccc(N2C(=S)N(C)C(=O)C23CCCCC3)cc1 [compound 56604835] | 6.6 µM | – | – | – | – | Growth Inhibition Activity, IC50 (μM), C. albicans (n = 3) CaCi-2 (Candida albicans CaCi-2; [2]): inactive; Growth Inhibition Activity, IC50 (μM), C. albicans (n = 3) CaCi-17 (Candida albicans CaCi-17; Table 3): inactive; Growth Inhibition Activity, IC50 (μM), 3T3 Fibroblasts (n = 1) ([1]; Table 3): Inactive
2 | Cc1ccc(N2C(=S)N(S(C)(=O)=O)C(=O)C23CCCCC3)cc1 [compound 56604886] | 29 µM | – | – | – | – | Growth Inhibition Activity, IC50 (μM), C. albicans (n = 3) CaCi-2 (Candida albicans CaCi-2; [2]): inactive; Growth Inhibition Activity, IC50 (μM), C. albicans (n = 3) CaCi-17 (Candida albicans CaCi-17; Table 3): inactive; Growth Inhibition Activity, IC50 (μM), 3T3 Fibroblasts (n = 1) ([1]; Table 3): Inactive
3 | CCCC(=O)N1C(=O)C2(CCCCC2)N(c2ccc(C)cc2)C1=S [compound 56604869] | 2.2 µM | – | – | – | – | Growth Inhibition Activity, IC50 (μM), C. albicans (n = 3) CaCi-2 (Candida albicans CaCi-2; [2]): inactive; Growth Inhibition Activity, IC50 (μM), C. albicans (n = 3) CaCi-17 (Candida albicans CaCi-17; Table 3): inactive; IC50 ([1]; Table 3): 18.8 µM
4 | CCOC(=O)N1C(=O)C2(CCOCC2)N(c2ccc(C)cc2)C1=S [CID 56604818] | – | – | – | – | – | Drop in activity / potency relative to hit CID3889161 (Candida albicans CaCi-2): 100 fold
5 | Cc1ccc(N2C(=O)C(=O)NC2=S)cc1 [compound 56604884] | – | inactive | inactive | Inactive | 21 µM (≈ 4.63 µg/mL) | –
6 | CCOC(=O)N1C(=O)C2(CCCCC2)N(c2ccc(CC)cc2)C1=S [compound 56604836] | – | – | – | – | – | IC50 (Candida albicans CaCi-2; Table 4, n = 3, 48 hours, tested up to 26 μM, read-out: Growth Inhibition Activity, IC50 (μM), C. albicans (n = 3) CaCi-2): 1.9 µM; Growth Inhibition Activity, IC50 (μM), C. albicans (n = 3) CaCi-17 (Candida albicans CaCi-17; Table 4): inactive; IC50 ([1]; Table 4): 19.5 µM; PBS Solubility (physchem; Table 4, PBS pH 7.4 with 1% DMSO, 24 hours, room temperature): <1.0 µM
7 | Cc1ccc(N2C(=S)NC(=O)C23CCCCC3)cc1 [compound 56604892] | 7.8 µM | – | – | – | – | Growth Inhibition Activity, IC50 (μM), C. albicans (n = 3) CaCi-2 (Candida albicans CaCi-2; [2]): inactive; Growth Inhibition Activity, IC50 (μM), C. albicans (n = 3) CaCi-17 (Candida albicans CaCi-17; Table 3): inactive; Growth Inhibition Activity, IC50 (μM), 3T3 Fibroblasts (n = 1) ([1]; Table 3): Inactive
8 | O=C1NC(=S)N(c2ccc(F)cc2)C12CCCCC2 [compound 56604862] | – | inactive | inactive | Inactive | 43 µM (≈ 12 µg/mL) | –
9 | O=C1NC(=S)NC12CCCCC2 [compound 56604841] | – | inactive | inactive | Inactive | > 100 µM | –
10 | CCOC(=O)N1C(=O)C2(CCCCC2)NC1=S [compound 56604830] | 61 µM | – | – | – | – | Growth Inhibition Activity, IC50 (μM), C. albicans (n = 3) CaCi-2 (Candida albicans CaCi-2; Table 4, n = 3, 48 hours, tested up to 26 μM): inactive; Growth Inhibition Activity, IC50 (μM), C. albicans (n = 3) CaCi-17 (Candida albicans CaCi-17; Table 4): inactive; Growth Inhibition Activity, IC50 (μM), 3T3 Fibroblasts (n = 1) ([1]; Table 4): Inactive
11 | O=C1NC(=S)N(Cc2ccccc2)C12CCCCC2 [compound 14297244] | – | inactive | inactive | Inactive | > 100 µM | –
12 | CCOC(=O)N1C(=O)C2(CCCCC2)N(Cc2ccccc2)C1=S [CID 56604878] | – | – | – | – | – | Drop in activity / potency relative to hit CID3889161 (Candida albicans CaCi-2): 10 fold
13 | Cc1ccc(N2C(=S)NC(=O)C23CCOCC3)cc1 [compound 56604885] | – | inactive | inactive | Inactive | > 100 µM | –
14 | O=C1NC(=S)N(c2ccccc2)C12CCCCC2 [compound 823120] | – | inactive | inactive | Inactive | 79 µM (≈ 20.6 µg/mL) | –
15 | CCOC(=O)N1C(=S)N(c2ccc(C)cc2)C(=O)C12CCCCC2 [CID 56604852] | – | – | – | – | – | Activity against C. albicans (Candida albicans CaCi-2): inactive
16 | Cc1ccc(N2C(=S)NC(=O)C23CCCCC3)cc1 [CID 56604892] | – | – | – | – | – | Activity against C. albicans (Candida albicans CaCi-2): failed to inhibit C. albicans growth
